Here are results for two compounds from patent publication US12347214B2, “Microspore culture predictive model generation and use” (PIONEER HI-BRED INTERNATIONAL, INC., priority 2019, dated 2025).

One data set has as its system plant cells. Briefly: Staining of plant cells with fluorescent dye, continued cell development. The settings on record: dye added at the beginning of the culture; plant cells continued to develop. The class given is cell-based. The text has this:
(§1) In the embodiment described herein, the fluorescent dye BODIPY 564/70, which stains both cell membranes and subcellular compartments, such as vacuoles, was used. […] BODIPY 564/70 is non-toxic to plant cells, so the plant cells continued to develop. BODIPY 564/70 is also very stable in cell culture conditions, so supplementation of the dye at the beginning of the culture was sufficient to generate informative images until the end point of the analysis. Other dyes, combinations of dyes, such as CFDA and FM4-64, and combinations of dyes with fluorescent protein markers, may also be used with the present method in order to generate different images. Options for fluorescent imaging include imaging cells that comprise fluorescent proteins, such as green (GFP), blue (EBFP, EBFP2, Azurite, mKalama1), cyan (ECFP, Cerulean, CyPet, mTurquoise2), red (dsRed, mCherry, tomato, etc.), far-red (mIFP, iBlueberry etc.) and yellow (YFP, Citrine, Venus, YPet). Plant cell stain techniques are known in the art, for example, see Ruzin, S. E. Plant Microtechnique and Microscopy. New York: Oxford University Press. ISBN 0195089561 (1999).

Data set [1] in a line: Dye stability in cell culture conditions. The class given is physicochemical. The following applies: supplementation at beginning of culture sufficient until end point of analysis.
From the text: as §1

Data set [2] concerns AtWOX2pro::CENH3-GFP activity in transgenic canola microspores. Briefly: AtWOX2pro::CENH3-GFP reporter activity in canola microspore culture with inducing agent. The following applies: with trichostatin A treatment. The class given is cell-based. The text has this: The methods described above for corn may also be adapted for use with other crops and for use with a reporter gene. As proof of concept, Canola microspore cells were obtained from a plant line that had been transformed with a green fluorescent protein reporter gene fused to a plant developmental gene with an effect on plant histones. While transformation was used in this case, other known gene insertion techniques such as CRISPR may be used to insert the reporter gene into the plant genome. A stable homozygous Canola line with the AtWOX2pro::CENH3-GFP fusion protein was developed. This protein attaches to plant histones, associates with plant chromocenters and can be used to determine chromosome number. GFP served as the reporter gene, although any reporter gene could also be used. This stable transgenic line was used to generate a microspore for in vitro tissue culture. Trichostatin A, a histone deacetylase inhibitor known to alter the embryogenic potential of dicot microspores was used as the inducing agent.

On to BODIPY 564/70, for which the “toxicity to plant cells” value in the data set on plant cells is on record as “non-toxic”. The “stability in cell culture conditions” value in data set [1] is reported as “very stable”.
Turning to `CC(/C=C/C(=O)NO)=C\[C@@H](C)C(=O)c1ccc(N(C)C)cc1` [trichostatin A, Trichostatin A], the “detection of AtWOX2pro::CENH3-GFP activity” value is recorded as “no or very low detection” in data set [2] (first timepoint) and “increased detection” in data set [2] (second time point).
